One experiment deals with T1, ER-α in MCF-7 cells (Homo sapiens, UniProt P03372).
T1 sequence (P03372 1-595): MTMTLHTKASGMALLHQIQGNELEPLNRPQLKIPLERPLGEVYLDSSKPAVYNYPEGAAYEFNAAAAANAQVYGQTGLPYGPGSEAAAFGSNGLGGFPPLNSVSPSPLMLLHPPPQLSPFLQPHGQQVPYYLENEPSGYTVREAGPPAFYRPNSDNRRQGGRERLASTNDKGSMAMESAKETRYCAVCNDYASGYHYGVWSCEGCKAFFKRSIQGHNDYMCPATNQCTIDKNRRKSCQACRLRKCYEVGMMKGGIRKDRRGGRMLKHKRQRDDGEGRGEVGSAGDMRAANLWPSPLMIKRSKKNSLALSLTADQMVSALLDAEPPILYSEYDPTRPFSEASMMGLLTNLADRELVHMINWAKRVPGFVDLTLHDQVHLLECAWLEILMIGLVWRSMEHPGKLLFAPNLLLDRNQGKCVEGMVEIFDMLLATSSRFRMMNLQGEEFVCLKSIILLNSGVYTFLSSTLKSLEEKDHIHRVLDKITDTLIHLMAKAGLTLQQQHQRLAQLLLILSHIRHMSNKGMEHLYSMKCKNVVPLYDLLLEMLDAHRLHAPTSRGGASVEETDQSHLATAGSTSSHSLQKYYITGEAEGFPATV
The experiment in a line: Breast cancer cell ER-α in cell western assay (SP1). Type of experiment: cell-based. Set-up: endogenous in cells; host or cells: MCF-7. The following applies: 4 or 24 hr post compound addition; for Emax: MCF7, SP1 antibody, read-out: ER-α In Cell Western Assay (SP1) Max Response; for DC50: SP1 antibody, read-out: ER-α In Cell Western Assay (SP1) IC50. In short, it runs like this:
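MCF-7, charcoal-stripped FBS/RPMI, 3200 cells/well, adhered overnight. Formalin fix, SP1 Ab o/n 4 °C, IRDye 800CW + DRAQ5; % ER = 800/700 ratio vs untreated.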

For a further experiment, the system named is MCF-7 cells. The experiment in a line: Breast cancer cell viability assay (CellTiter-Glo, 5 days). The class given is cell-based. The following applies: 5 days' compound exposure; for IC50: Homo sapiens, MCF7, 120 h. The essentials: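 MCF-7 cells, 320 per well in RPMI with 10% FBS and 20 mM HEPES, adhered overnight, then exposed 5 days to an eleven-point semilog dilution (final 0.3-0.000003 μM). CellTiter-Glo luminescence read; % viability = (sample − cell-free background)/(untreated − background) × 100.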
A general note: Cellular ATP, detected with luciferase, serves as a proxy for viable cell number.

A word on the IC50: it is the concentration needed to halve the response being measured. A high value points to lower potency.

`CC/C(=C(/c1ccc(/C=C/C(=O)O)cc1)c1ccc2[nH]ncc2c1)c1ccncc1F` [Compound 231, (E)-3-(4-((E)-2-(3-Fluoropyridin-4-yl)-1-(1H-indazol-5-yl)but-1-en-1-yl)phenyl)acrylic acid]: on ER-α in MCF-7 cells, the Emax is no less than 40% and the DC50 was no more than 100 nM. Further, in the experiment with MCF-7 cells, the “MCF7 Viability Assay Max Response” value is on record as “++ (++ = a single % value ≧ 40%)” and the IC50 is no more than 100 nM.

Regarding `CC/C(=C(/c1ccc(/C=C/C(=O)O)cc1)c1ccc2nccn2c1)c1ccc(Cl)cc1Cl` [Compound 232, (E)-3-(4-((E)-2-(2,4-Dichlorophenyl)-1-(imidazo[1,2-a]pyridin-6-yl)but-1-en-1-yl)phenyl)acrylic acid], on ER-α in MCF-7 cells, the Emax was no less than 40% and the DC50 was no more than 100 nM. In addition, in the experiment with MCF-7 cells, the “MCF7 Viability Assay Max Response” value was “++ (++ = a single % value ≧ 40%)” and the IC50 was no more than 100 nM.

Turning to `CC/C(=C(/c1ccc(/C=C/C(=O)O)cc1)c1ccc2nccn2c1)c1ccc(F)cc1C(F)(F)F` [Compound 233, (E)-3-(4-((E)-2-(4-Fluoro-2-(trifluoromethyl)phenyl)-1-(imidazo[1,2-a]pyridin-6-yl)but-1-en-1-yl)phenyl)acrylic acid], on ER-α in MCF-7 cells, the Emax is no less than 40% and the DC50 was no more than 100 nM. Further, in the experiment on MCF-7 cells, the “MCF7 Viability Assay Max Response” value was “++ (++ = a single % value ≧ 40%)” and the 50% inhibitory concentration (IC50) is no more than 100 nM.

As to `CC/C(=C(/c1ccc(/C=C/C(=O)O)cc1)c1ccc2[nH]ncc2c1)c1ccnc(OC)c1` [Compound 236, (E)-3-(4-((E)-1-(1H-Indazol-5-yl)-2-(2-methoxypyridin-4-yl)but-1-en-1-yl)phenyl)acrylic acid], at ER-α in MCF-7 cells, the Emax was no less than 40% and the DC50 is no more than 100 nM. In addition, in the experiment with MCF-7 cells, the “MCF7 Viability Assay Max Response” value was “++ (++ = a single % value ≧ 40%)” and the 50% inhibitory concentration (IC50) was no more than 100 nM.

`CC/C(=C(/c1ccc(/C=C/C(=O)O)cc1)c1ccc2[nH]ncc2c1)c1ccc2c(c1)OCO2` [Compound 240, (E)-3-(4-((E)-2-(Benzo[d][1,3]dioxol-5-yl)-1-(1H-indazol-5-yl)but-1-en-1-yl)phenyl)acrylic acid]: at ER-α in MCF-7 cells, the Emax was no less than 40% and the DC50 was no more than 100 nM. In the experiment with MCF-7 cells, the “MCF7 Viability Assay Max Response” value was “++ (++ = a single % value ≧ 40%)” and the IC50 was no more than 100 nM.

With `CC/C(=C(/c1ccc(/C=C/C(=O)O)cc1)c1ccc2[nH]ncc2c1)c1sccc1C` [Compound 241, (E)-3-(4-((E)-1-(1H-Indazol-5-yl)-2-(3-methylthiophen-2-yl)but-1-en-1-yl)phenyl)acrylic acid], at ER-α in MCF-7 cells, the Emax is no less than 40% and the DC50 is no more than 100 nM. Besides, in the experiment with MCF-7 cells, the “MCF7 Viability Assay Max Response” value is given as “++ (++ = a single % value ≧ 40%)” and the half-maximal inhibitory concentration (IC50) is no more than 100 nM.

Turning to `CC/C(=C(/c1ccc(/C=C/C(=O)O)cc1)c1ccc2[nH]ncc2c1F)c1cscc1C` [Compound 242, (E)-3-(4-((E)-1-(4-Fluoro-1H-indazol-5-yl)-2-(4-methylthiophen-3-yl)but-1-en-1-yl)phenyl)acrylic acid], on ER-α in MCF-7 cells, the Emax is no less than 40% and the DC50 was no more than 100 nM. In the experiment with MCF-7 cells, the “MCF7 Viability Assay Max Response” value is on record as “++ (++ = a single % value ≧ 40%)” and the IC50 was no more than 100 nM.

For `CC/C(=C(/c1ccc(/C=C/C(=O)O)cc1)c1cc(F)c2[nH]ncc2c1)c1ccncc1Cl` [Compound 245, (E)-3-(4-((E)-2-(3-chloropyridin-4-yl)-1-(7-fluoro-1H-indazol-5-yl)but-1-en-1-yl)phenyl)acrylic acid], at ER-α in MCF-7 cells, the Emax is no less than 40% and the DC50 was no more than 100 nM. In the experiment on MCF-7 cells, the “MCF7 Viability Assay Max Response” value is recorded as “++ (++ = a single % value ≧ 40%)” and the 50% inhibitory concentration (IC50) is no more than 100 nM.

As for `CC/C(=C(/c1ccc(/C=C/C(=O)O)cc1)c1cnc2[nH]ccc2n1)c1ccccc1` [Compound 246, (E)-3-(4-((E)-2-Phenyl-1-(5H-pyrrolo[2,3-b]pyrazin-2-yl)but-1-en-1-yl)phenyl)acrylic acid], at ER-α in MCF-7 cells, the Emax is no less than 40% and the DC50 is greater than 100 nM. In addition, in the experiment with MCF-7 cells, the “MCF7 Viability Assay Max Response” value is “+ (+ = a single % value < 40%)” and the IC50 was greater than 100 nM.

On to `CC/C(=C(/c1ccc(/C=C/C(=O)O)cc1)c1ccc2[nH]ncc2c1)c1ccc2occc2c1` [Compound 247, (E)-3-(4-((E)-2-(Benzofuran-5-yl)-1-(1H-indazol-5-yl)but-1-en-1-yl)phenyl)acrylic acid], for which, on ER-α in MCF-7 cells, the Emax was no less than 40% and the DC50 is no more than 100 nM. In the experiment with MCF-7 cells, the “MCF7 Viability Assay Max Response” value is listed as “++ (++ = a single % value ≧ 40%)” and the IC50 was no more than 100 nM.

For `CC/C(=C(/c1ccc(/C=C/C(=O)O)cc1)c1ccc2[nH]ncc2c1)c1cccc(N2CCCC2)c1` [Compound 249], at ER-α in MCF-7 cells, the Emax is no less than 40% and the DC50 was no more than 100 nM. For the same molecule, in the experiment on MCF-7 cells, the “MCF7 Viability Assay Max Response” value is “++ (++ = a single % value ≧ 40%)” and the IC50 is greater than 100 nM.

Regarding `CC/C(=C(/c1ccc(/C=C/C(=O)O)cc1)c1ccc2[nH]ncc2c1)c1ccc2c(c1)OCCO2` [Compound 250, (E)-3-(4-((E)-2-(2,3-Dihydrobenzo[b][1,4]dioxin-6-yl)-1-(1H-indazol-5-yl)but-1-en-1-yl)phenyl)acrylic acid], on ER-α in MCF-7 cells, the Emax is no less than 40% and the DC50 was no more than 100 nM. Besides, in the experiment on MCF-7 cells, the “MCF7 Viability Assay Max Response” value was “++ (++ = a single % value ≧ 40%)” and the IC50 is no more than 100 nM.

`CC/C(=C(/c1ccc(/C=C/C(=O)O)cc1)c1ccc2[nH]ncc2c1)c1ccc2cn[nH]c2c1` [Compound 251, (E)-3-(4-((E)-1-(1H-Indazol-5-yl)-2-(1H-indazol-6-yl)but-1-en-1-yl)phenyl)acrylic acid]: on ER-α in MCF-7 cells, the Emax is no less than 40% and the DC50 is greater than 100 nM. In the experiment on MCF-7 cells, the “MCF7 Viability Assay Max Response” value is “++ (++ = a single % value ≧ 40%)” and the IC50 is greater than 100 nM.

In the case of `CC/C(=C(/c1ccc(/C=C/C(=O)O)cc1)c1ccc2[nH]ncc2c1)c1cccc(-n2cccn2)c1` [Compound 252, (E)-3-(4-((E)-2-(3-(1H-Pyrazol-1-yl)phenyl)-1-(1H-indazol-5-yl)but-1-en-1-yl)phenyl)acrylic acid], on ER-α in MCF-7 cells, the Emax was no less than 40% and the DC50 was no more than 100 nM. Besides, in the experiment on MCF-7 cells, the “MCF7 Viability Assay Max Response” value is given as “++ (++ = a single % value ≧ 40%)” and the IC50 is greater than 100 nM.

Regarding `CC/C(=C(/c1ccc(/C=C/C(=O)O)cc1)c1cc(F)c2[nH]ccc2c1)c1ccc(Cl)cc1Cl` [Compound 253, (E)-3-(4-((E)-2-(2,4-Dichlorophenyl)-1-(7-fluoro-1H-indol-5-yl)but-1-en-1-yl)phenyl)acrylic acid], at ER-α in MCF-7 cells, the Emax was no less than 40% and the DC50 is no more than 100 nM. For the same molecule, in the experiment with MCF-7 cells, the “MCF7 Viability Assay Max Response” value is given as “++ (++ = a single % value ≧ 40%)” and the half-inhibitory concentration (IC50) was no more than 100 nM.

On to `CC/C(=C(/c1ccc(/C=C/C(=O)O)cc1)c1cc(F)c2[nH]ccc2c1)c1ccc(F)cc1Cl` [Compound 254, (E)-3-(4-((E)-2-(2-Chloro-4-fluorophenyl)-1-(7-fluoro-1H-indol-5-yl)but-1-en-1-yl)phenyl)acrylic acid], for which, at ER-α in MCF-7 cells, the Emax is no less than 40% and the DC50 was no more than 100 nM. Further, in the experiment on MCF-7 cells, the “MCF7 Viability Assay Max Response” value is listed as “++ (++ = a single % value ≧ 40%)” and the concentration for half-maximal inhibition (IC50) is no more than 100 nM.

For the molecule `CC/C(=C(/c1ccc(/C=C/C(=O)O)cc1)c1ccc2[nH]ncc2c1)c1ccc2scnc2c1` [Compound 255, (E)-3-(4-((E)-2-(Benzo[d]thiazol-5-yl)-1-(1H-indazol-5-yl)but-1-en-1-yl)phenyl)acrylic acid], at ER-α in MCF-7 cells, the Emax was no less than 40% and the DC50 was no more than 100 nM. Further, in the experiment on MCF-7 cells, the “MCF7 Viability Assay Max Response” value was “++ (++ = a single % value ≧ 40%)” and the IC50 is no more than 100 nM.

As to `CC/C(=C(/c1ccc(/C=C/C(=O)O)cc1)c1ccc2[nH]ncc2c1)c1ccc2c(c1)CCO2` [Compound 256, (E)-3-(4-((E)-2-(2,3-Dihydrobenzofuran-5-yl)-1-(1H-indazol-5-yl)but-1-en-1-yl)phenyl)acrylic acid], on ER-α in MCF-7 cells, the Emax is no less than 40% and the DC50 was no more than 100 nM. For the same molecule, in the experiment with MCF-7 cells, the “MCF7 Viability Assay Max Response” value is on record as “++ (++ = a single % value ≧ 40%)” and the IC50 was no more than 100 nM.

Turning to `Cc1cscc1/C(CC(C)C)=C(\c1ccc(/C=C/C(=O)O)cc1)c1ccc2[nH]ncc2c1` [Compound 257, (E)-3-(4-((E)-1-(1H-Indazol-5-l)-4-methyl-2-(4-methylthiophen-3-yl)pent-1-en-1-yl)phenyl)acrylic acid], at ER-α in MCF-7 cells, the Emax was no less than 40% and the DC50 is no more than 100 nM. For the same molecule, in the experiment on MCF-7 cells, the “MCF7 Viability Assay Max Response” value is listed as “++ (++ = a single % value ≧ 40%)” and the IC50 is no more than 100 nM.

Source of the values: patent publication US9399646B2 (Genentech, Inc., priority 2010, dated 2016).
